Values quoted from earlier work in article PMC3935482 (Clinical cancer research : an official journal of the …, 2013).
Where two headings read alike, the source gives them in different places.

Assays:
[1] = system: patients
[2] = oral rapamycin and IV temsirolimus

CO[C@H]1C[C@@H]2CC[C@@H](C)[C@@](O)(O2)C(=O)C(=O)N2CCCC[C@H]2C(=O)O[C@H]([C@H](C)C[C@@H]2CC[C@@H](OP(C)(C)=O)[C@H](OC)C2)CC(=O)[C@H](C)/C=C(\C)[C@@H](O)[C@@H](OC)C(=O)[C@H](C)C[C@H](C)/C=C/C=C/C=C/1C [deferolimus]
Half-life (given by weekly IV infusion): 45 to 52 h

CO[C@H]1C[C@@H]2CC[C@@H](C)[C@@](O)(O2)C(=O)C(=O)N2CCCC[C@H]2C(=O)O[C@H]([C@H](C)C[C@@H]2CC[C@@H](O)[C@H](OC)C2)CC(=O)[C@H](C)/C=C(\C)[C@@H](O)[C@@H](OC)C(=O)[C@H](C)C[C@H](C)/C=C/C=C/C=C/1C [rapamycin]
Cmax of rapamycin (5 mg oral rapamycin): 15.5 ng/mL
Cmax of rapamycin (9 mg oral rapamycin): 37.9 ng/mL
Cmax of rapamycin (60 mg oral rapamycin): 57.72 ng/mL
Half-life [2]: 61 to 69 h

CO[C@H]1C[C@@H]2CC[C@@H](C)[C@@](O)(O2)C(=O)C(=O)N2CCCC[C@H]2C(=O)O[C@H]([C@H](C)C[C@@H]2CC[C@@H](OC(=O)C(C)(CO)CO)[C@H](OC)C2)CC(=O)[C@H](C)/C=C(\C)[C@@H](O)[C@@H](OC)C(=O)[C@H](C)C[C@H](C)/C=C/C=C/C=C/1C [temsirolimus]
Half-life [2]: 61 to 69 h
Patients with dermatologic toxicities such as rash ([1]; patients receiving temsirolimus): up to 50%
Grade 3 or 4 depression ([1]; phase 2 study, 250 mg dose level): 10%
